Results: publication PMC8595653, “Activation of specific bitter taste receptors by olive oil phenolics and secoiridoids” (Scientific Reports, 2021)
Entries after “also recorded” stand apart in the source; their conditions may differ. One block for each molecule: values may come before it.

Assays:
25 human TAS2Rs = test: Single dose scanning of phenolic compounds on the 25 bitter taste receptors (calcium mobilization, HEK293E); type: cell-based; conditions: single dose 300 µM, 25 TAS2Rs, N = 2
Description: (§1) All constructs were confirmed by DNA sequencing.
(§2) Data from single dose experiments were collected as duplicates. […] Data represent mean ± SD.
(§3) To characterize the bitterness of olive oil phenolic compounds, we performed calcium mobilization experiments. The 25 bitter taste receptors, G protein chimera (Gα16-gus44), and the GCaMP calcium sensor[68] were transiently expressed in HEK293E cells. Twelve olive oil phenolic compounds (Fig. 1) were tested for bitter taster receptor activation (Fig. 3). […] Ligstroside aglycon, and Oleuropein aglycon activated TAS2R1, TAS2R8 and TAS2R14 receptors. To validate the single dose scanning results, we performed concentration–response experiments for all the compounds toward receptors TAS2R1, TAS2R8, and TAS2R14 that produced the most significant responses (Fig. 4).
Figure 3 Phenolic compound bitter taste activity tests on hTAS2Rs. Relative fluorescence signals caused by phenolic compound activation of the receptors and the empty vector as a negative control. The concentration of the compounds used was [300 µM], except for Ligstroside aglycon and Oleuropein aglycon [200 µM], oleuropein that was [3 mM]. The asterisks indicate significant differences tested by one-way ANOVA (***p < 0.0001) (N = 2). Data represent mean ± SD.

TAS2R50 = molecular target: T1, TAS2R50 (Homo sapiens, UniProt P59544); test: Calcium mobilization functional assay, TAS2R50; type: cell-based; conditions: 1 mM, versus empty pcDNA vector
T1 construct: first 45 amino acids of rat somatostatin type 3 receptor (SSTR3) export tag (N); expressed in transfected cells; host or cells: HEK293E
Excerpt: as §1, §2

TAS2R43 = molecular target: T2, TAS2R43 (Homo sapiens, UniProt P59537); test: Calcium mobilization functional assay, TAS2R43; type: cell-based; conditions: 30 µM, versus empty pcDNA vector
T2 construct: first 45 amino acids of rat somatostatin type 3 receptor (SSTR3) export tag (N); expressed in transfected cells; host or cells: HEK293E
Excerpt: as §1, §2

TAS2R31 = molecular target: T3, TAS2R31 (Homo sapiens, UniProt P59538); test: Calcium mobilization functional assay, TAS2R31; type: cell-based; conditions: 30 µM, versus empty pcDNA vector
T3 construct: first 45 amino acids of rat somatostatin type 3 receptor (SSTR3) export tag (N); expressed in transfected cells; host or cells: HEK293E
Excerpt: as §1, §2

TAS2R41 = molecular target: T4, TAS2R41 (Homo sapiens, UniProt P59536); test: Calcium mobilization functional assay, TAS2R41; type: cell-based; conditions: 1 mM, versus empty pcDNA vector
T4 construct: first 45 amino acids of rat somatostatin type 3 receptor (SSTR3) export tag (N); expressed in transfected cells; host or cells: HEK293E
Excerpt: as §1, §2

TAS2R8 = molecular target: T5, TAS2R8 (Homo sapiens, UniProt Q9NYW2); test: Calcium mobilization functional assay, TAS2R8 co-expressed with Gα16-gust44 and GCaMP in HEK293E cells; type: cell-based; conditions: 1 mM, versus empty pcDNA vector
T5 construct: first 45 amino acids of rat somatostatin type 3 receptor (SSTR3) export tag (N); expressed in transfected cells; host or cells: HEK293E
T5 sequence (Q9NYW2 1-309): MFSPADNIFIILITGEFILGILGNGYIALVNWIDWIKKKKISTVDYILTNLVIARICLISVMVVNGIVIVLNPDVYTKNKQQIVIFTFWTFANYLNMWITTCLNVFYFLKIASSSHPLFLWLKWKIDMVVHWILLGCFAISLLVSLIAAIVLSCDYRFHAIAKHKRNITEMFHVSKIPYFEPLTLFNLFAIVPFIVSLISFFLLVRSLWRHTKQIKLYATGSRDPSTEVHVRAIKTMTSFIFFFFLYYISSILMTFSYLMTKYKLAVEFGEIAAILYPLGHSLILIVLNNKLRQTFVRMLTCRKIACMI
Description: as §1, §2, §3

TAS2R1 = molecular target: T6, TAS2R1 (Homo sapiens, UniProt Q9NYW7); test: Calcium mobilization functional assay, TAS2R1 co-expressed with Gα16-gust44 and GCaMP in HEK293E cells; type: cell-based; conditions: 1 mM, versus empty pcDNA vector
T6 construct: first 45 amino acids of rat somatostatin type 3 receptor (SSTR3) export tag (N); expressed in transfected cells; host or cells: HEK293E
T6 sequence (Q9NYW7 1-299): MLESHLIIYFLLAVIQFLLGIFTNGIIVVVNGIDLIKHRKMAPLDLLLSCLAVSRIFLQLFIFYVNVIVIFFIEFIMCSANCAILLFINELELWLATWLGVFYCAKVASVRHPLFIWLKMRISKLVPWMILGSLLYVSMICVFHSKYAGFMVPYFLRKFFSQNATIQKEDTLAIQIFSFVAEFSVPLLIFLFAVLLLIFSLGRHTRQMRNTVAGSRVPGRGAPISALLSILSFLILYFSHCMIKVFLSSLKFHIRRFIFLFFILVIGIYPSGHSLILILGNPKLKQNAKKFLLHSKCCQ
Description: as §1, §2, §3

TAS2R20 = molecular target: T7, TAS2R20 (Homo sapiens, UniProt P59543); test: Calcium mobilization functional assay, TAS2R20 (RTP3 and RTP4 co-expressed); type: cell-based; conditions: 10 mM, versus empty pcDNA vector
T7 construct: first 45 amino acids of rat somatostatin type 3 receptor (SSTR3) export tag (N); expressed in transfected cells; host or cells: HEK293E
Excerpt: as §1, §2

TAS2R30 = molecular target: T8, TAS2R30 (Homo sapiens, UniProt P59541); test: Calcium mobilization functional assay, TAS2R30; type: cell-based; conditions: 300 µM, versus empty pcDNA vector
T8 construct: first 45 amino acids of rat somatostatin type 3 receptor (SSTR3) export tag (N); expressed in transfected cells; host or cells: HEK293E
Excerpt: as §1, §2

TAS2R14 = molecular target: T9, TAS2R14 (Homo sapiens, UniProt Q9NYV8); test: Calcium mobilization functional assay, TAS2R14 co-expressed with Gα16-gust44 and GCaMP in HEK293E cells; type: cell-based; conditions: 0.3 mM, versus empty pcDNA vector
T9 construct: first 45 amino acids of rat somatostatin type 3 receptor (SSTR3) export tag (N); expressed in transfected cells; host or cells: HEK293E
T9 sequence (Q9NYV8 1-317): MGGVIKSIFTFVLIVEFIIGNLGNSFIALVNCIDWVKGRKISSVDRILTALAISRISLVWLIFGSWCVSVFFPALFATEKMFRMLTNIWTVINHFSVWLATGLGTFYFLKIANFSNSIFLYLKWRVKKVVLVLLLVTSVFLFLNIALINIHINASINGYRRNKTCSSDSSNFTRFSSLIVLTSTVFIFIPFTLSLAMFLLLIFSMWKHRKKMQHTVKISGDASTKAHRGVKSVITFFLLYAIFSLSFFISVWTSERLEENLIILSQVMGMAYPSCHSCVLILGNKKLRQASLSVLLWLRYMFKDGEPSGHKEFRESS
Description: as §1, §2, §3

TAS2R40 = molecular target: T10, TAS2R40 (Homo sapiens, UniProt P59535); test: Calcium mobilization functional assay, TAS2R40; type: cell-based; conditions: 30 µM, versus empty pcDNA vector
T10 construct: first 45 amino acids of rat somatostatin type 3 receptor (SSTR3) export tag (N); expressed in transfected cells; host or cells: HEK293E
Excerpt: as §1, §2

TAS2R39 = molecular target: T11, TAS2R39 (Homo sapiens, UniProt P59534); test: Calcium mobilization functional assay, TAS2R39; type: cell-based; conditions: 10 mM, versus empty pcDNA vector
T11 construct: first 45 amino acids of rat somatostatin type 3 receptor (SSTR3) export tag (N); expressed in transfected cells; host or cells: HEK293E
Excerpt: as §1, §2

TAS2R46 = TAS2R46 (Homo sapiens, UniProt P59540); conditions: 300 µM, versus empty pcDNA vector
Description: 25 human TAS2R genes were subcloned into the pcDNA 3.1 vector, as previously descripted in the literature[44],[53]. The first 45 amino acids of the rat somatostatin type 3 receptor, which serves as a cell-surface-targeting signal, were added to the N-termini of the TAS2Rs to target them more efficiently to the cell surface. Herpes simplex virus (HSV) glycoprotein D epitopes were added to the carboxy termini of the receptors for immunocytochemistry. All constructs were confirmed by DNA sequencing.
HEK293E cells were cultured at 37 °C in DMEM (Thermo Fisher Scientific), supplemented with 10% fetal bovine serum (FBS) and 1% Penicillin Streptomycin. The cells were seeded onto 96-well plates (Clear Bottom Black Polystyrene Poly-D-Lysine Coated Microplates, Corning life sciences) at a density of 50,000 (in 100 μl DMEM) per well, and cultured at 37 °C for overnight. On the second day following seeding, the medium was changed to OPTI-MEM supplemented with 5% FBS (filtered) before co-transfection using Polyethylenimine (PEI) (1.6 μg/well) with plasmid DNAs encoding TAS2Rs (0.1 μg/well), Gα16-gust44 (0.06 μg/well) and the GCaMP calcium sensor (0.035 μg/well). After 24 h, the medium was changed to fresh OPTI-MEM supplemented with 5% FBS (filtered) and 0.1% Plasmocin (InvivoGen). […]

T7 sequence (P59543 whole entry): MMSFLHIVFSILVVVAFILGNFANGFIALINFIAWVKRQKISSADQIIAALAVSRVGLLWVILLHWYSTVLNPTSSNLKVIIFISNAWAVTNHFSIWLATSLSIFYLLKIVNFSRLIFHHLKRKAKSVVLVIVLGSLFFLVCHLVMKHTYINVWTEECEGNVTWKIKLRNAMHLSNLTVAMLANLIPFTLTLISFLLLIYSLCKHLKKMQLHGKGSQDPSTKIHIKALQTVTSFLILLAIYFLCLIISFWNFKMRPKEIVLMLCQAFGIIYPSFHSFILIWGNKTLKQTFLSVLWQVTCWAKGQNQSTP
T4 sequence (P59536 whole entry): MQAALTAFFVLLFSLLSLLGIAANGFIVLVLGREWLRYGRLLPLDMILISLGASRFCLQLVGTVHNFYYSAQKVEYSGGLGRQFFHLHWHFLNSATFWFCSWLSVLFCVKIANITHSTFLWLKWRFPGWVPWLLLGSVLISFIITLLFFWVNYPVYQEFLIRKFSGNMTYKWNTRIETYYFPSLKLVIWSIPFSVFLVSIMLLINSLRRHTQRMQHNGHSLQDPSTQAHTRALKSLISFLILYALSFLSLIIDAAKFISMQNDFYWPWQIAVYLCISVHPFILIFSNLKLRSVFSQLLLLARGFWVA
T1 sequence (P59544 whole entry): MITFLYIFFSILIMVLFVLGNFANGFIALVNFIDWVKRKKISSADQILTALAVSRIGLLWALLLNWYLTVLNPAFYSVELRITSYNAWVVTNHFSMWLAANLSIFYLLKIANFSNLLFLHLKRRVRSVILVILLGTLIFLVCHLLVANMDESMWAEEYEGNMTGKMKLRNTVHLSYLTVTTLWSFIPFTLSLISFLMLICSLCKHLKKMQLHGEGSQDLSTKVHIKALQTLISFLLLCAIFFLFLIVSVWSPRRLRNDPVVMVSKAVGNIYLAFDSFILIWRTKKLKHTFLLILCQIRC
T3 sequence (P59538 whole entry): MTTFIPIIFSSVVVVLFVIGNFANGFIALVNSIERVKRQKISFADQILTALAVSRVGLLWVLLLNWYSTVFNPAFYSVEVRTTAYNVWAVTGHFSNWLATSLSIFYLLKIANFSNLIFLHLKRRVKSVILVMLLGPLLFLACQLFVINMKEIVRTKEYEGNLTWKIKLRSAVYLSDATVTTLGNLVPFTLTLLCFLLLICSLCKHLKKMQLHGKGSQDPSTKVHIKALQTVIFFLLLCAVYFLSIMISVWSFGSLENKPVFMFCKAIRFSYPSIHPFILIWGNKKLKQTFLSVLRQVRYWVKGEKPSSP
Sequence of TAS2R46 (P59540 whole entry): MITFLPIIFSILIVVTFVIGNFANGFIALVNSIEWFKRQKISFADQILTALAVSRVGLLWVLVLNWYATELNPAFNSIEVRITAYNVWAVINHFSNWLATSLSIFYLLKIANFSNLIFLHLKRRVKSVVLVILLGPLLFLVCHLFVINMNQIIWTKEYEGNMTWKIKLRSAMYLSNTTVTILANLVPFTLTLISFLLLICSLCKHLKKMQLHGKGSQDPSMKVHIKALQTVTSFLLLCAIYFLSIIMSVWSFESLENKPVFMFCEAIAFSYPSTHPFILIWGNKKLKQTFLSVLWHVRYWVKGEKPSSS
T8 sequence (P59541 whole entry): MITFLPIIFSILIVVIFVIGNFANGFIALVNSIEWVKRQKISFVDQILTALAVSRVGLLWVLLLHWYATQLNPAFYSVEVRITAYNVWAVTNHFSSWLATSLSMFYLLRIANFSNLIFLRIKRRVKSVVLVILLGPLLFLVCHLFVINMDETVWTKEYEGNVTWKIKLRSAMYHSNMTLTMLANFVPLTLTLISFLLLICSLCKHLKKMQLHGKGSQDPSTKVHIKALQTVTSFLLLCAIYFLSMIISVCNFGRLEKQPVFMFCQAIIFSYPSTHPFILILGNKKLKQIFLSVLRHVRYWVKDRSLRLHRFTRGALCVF
T10 sequence (P59535 whole entry): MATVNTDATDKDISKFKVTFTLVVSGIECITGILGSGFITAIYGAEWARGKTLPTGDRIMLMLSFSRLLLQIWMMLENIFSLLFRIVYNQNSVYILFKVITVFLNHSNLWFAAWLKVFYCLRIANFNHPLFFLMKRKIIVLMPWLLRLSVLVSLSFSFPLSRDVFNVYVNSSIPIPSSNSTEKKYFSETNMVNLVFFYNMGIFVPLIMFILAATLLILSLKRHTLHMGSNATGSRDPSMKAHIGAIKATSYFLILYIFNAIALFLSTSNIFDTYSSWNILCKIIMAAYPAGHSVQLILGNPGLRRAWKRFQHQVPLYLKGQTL
T11 sequence (P59534 whole entry): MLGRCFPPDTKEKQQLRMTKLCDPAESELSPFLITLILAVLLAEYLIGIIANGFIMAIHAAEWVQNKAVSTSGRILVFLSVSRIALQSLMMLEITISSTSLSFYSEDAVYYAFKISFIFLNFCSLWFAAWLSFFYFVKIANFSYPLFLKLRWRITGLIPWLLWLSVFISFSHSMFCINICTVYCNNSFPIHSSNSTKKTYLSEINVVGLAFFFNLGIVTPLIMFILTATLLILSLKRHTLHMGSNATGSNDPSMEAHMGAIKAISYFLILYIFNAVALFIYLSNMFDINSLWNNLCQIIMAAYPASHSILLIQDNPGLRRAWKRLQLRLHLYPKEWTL
T2 sequence (P59537 whole entry): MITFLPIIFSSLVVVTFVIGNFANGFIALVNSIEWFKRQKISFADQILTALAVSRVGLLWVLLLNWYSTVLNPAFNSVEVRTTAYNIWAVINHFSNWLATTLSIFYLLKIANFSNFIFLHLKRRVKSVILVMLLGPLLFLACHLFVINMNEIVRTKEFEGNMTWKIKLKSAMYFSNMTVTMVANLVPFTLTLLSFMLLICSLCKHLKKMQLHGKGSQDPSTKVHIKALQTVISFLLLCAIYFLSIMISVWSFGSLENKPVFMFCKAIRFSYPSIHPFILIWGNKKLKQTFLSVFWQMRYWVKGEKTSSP

Compound: OCCc1ccc(O)cc1 [Tyrosol, tyrosol]
activation of any TAS2R (25 human TAS2Rs): did not activate any TAS2Rs; also recorded: failed to activate any bitter receptor; also recorded: failed to activate any TAS2Rs

activation of TAS2R50 (TAS2R50): activated
Compound: C=C1CC[C@@H]2[C@](C)(CO)[C@H](O)CC[C@@]2(C)[C@@H]1C/C=C1/C(=O)OC[C@H]1O [andrographolide]

Compound: COc1cccc2c1cc([N+](=O)[O-])c1c(C(=O)O)cc3c(c12)OCO3 [aristolochic acid]
activation of TAS2R43 (TAS2R43): activated | activation of TAS2R31 (TAS2R31): activated

activation of TAS2R41 (TAS2R41): activated | activation of TAS2R8 (TAS2R8): activated | activation of TAS2R1 (TAS2R1): activated
Compound: O=C(N[C@H](CO)[C@H](O)c1ccc([N+](=O)[O-])cc1)C(Cl)Cl [chloramphenicol, reference compound]

activation of TAS2R20 (TAS2R20): activated
Compound: O=C(O)c1cc(=O)c2c(OCC(O)COc3cccc4oc(C(=O)O)cc(=O)c34)cccc2o1 [cromolyn]

activation of TAS2R30 (TAS2R30): activated
Compound: CC[N+](CC)(CC(=O)Nc1c(C)cccc1C)Cc1ccccc1 [denatonium, denatonium benzoate]

activation of TAS2R14 (TAS2R14): activated
Compound: O=C(O)c1ccccc1Nc1cccc(C(F)(F)F)c1 [flufenamic acid, reference compound]

activation of TAS2R40 (TAS2R40): activated
Compound: CC(C)=CCC1C(=O)C(C(=O)CC(C)C)=C(O)C(O)(CC=C(C)C)C1=O (stereo not shown) [humulone]

activation of TAS2R39 (TAS2R39): activated
Compound: CNC(=C[N+](=O)[O-])NCCSCc1ccc(CN(C)C)o1 [ranitidine]

Compound: O=C1C[C@@H]2OCC=C3CN4CC[C@]56c7ccccc7N1[C@H]5[C@H]2[C@H]3C[C@H]46 [strychnine]
activation of TAS2R46 (TAS2R46): activated
